Test results published in patent US20190249218A1, “Method, Medium and Kit for Detecting Multiple Aminoglycoside Resistance Including 16S rRNA Methylase Mediated Resistance in Gram-Negative Bacteria” (priority 2016, published 2019).

Legend:
Experiment in all cases: MIC by broth microdilution
P. stuartii = format: cell-based, Providencia stuartii
Procedure: (§1) MICs of amikacin and gentamicin were determined using the broth microdilution method in cation-adjusted Mueller-Hinton broth, as recommended by the Clinical Laboratory Standard Institute (CLSI) guidelines (8). Amikacin and gentamicin sulfate (Fluorochem, Dertbyshire, UK) were tested over a range of dilutions from 0.25 to 256 μg/ml. A final inoculum of 5.10^5 CFU/ml of each strain was distributed in the 96 wells tray (Sarstedt, Ntimbrecht, Germany). All experiments were repeated in triplicate and E. coli ATCC 25922 was used as quality control. According to the CLSI breakpoints (9), Enterobacteriaceae isolates with gentamicin MICs≤4 and amikacin MICs≤16 mg/L were categorized as susceptible, while those with gentamicin MICs≥16 and amikacin MICs≥64 mg/L were categorized as resistant.
(§2) MICs of amikacin and gentamicin were determined as described above in Example 1.

K. pneumoniae = format: cell-based, Klebsiella pneumoniae
Procedure: as §1, §2

S. marcescens = format: cell-based, Serratia marcescens; conditions: AAC(3)-I
Procedure: as §1, §2

A. baumannii = format: cell-based, Acinetobacter baumannii
Procedure: as §1, §2

P. aeruginosa = format: cell-based, Pseudomonas aeruginosa
Procedure: as §1, §2

E. coli = format: cell-based, Escherichia coli
Procedure: as §1, §2

E. cloacae = format: cell-based, Enterobacter cloacae
Procedure: as §1, §2

[1] = isolate BM2667, P. stuartii, APH(3′)-VI + AAC(2′)
[2] = isolate R265, P. stuartii, rmtC
[3] = isolate 1800, K. pneumoniae, AAC(6′)-I + AAC(3)-I
[4] = isolate 13000, K. pneumoniae, APH(3′)-I + AAC(3)-V
[5] = isolate 22233, K. pneumoniae, AAC(3)-V
[6] = isolate N34, K. pneumoniae, rmtC
[7] = isolate R108, K. pneumoniae, armA
[8] = isolate R347, K. pneumoniae, AG susceptible
[9] = isolate R500, K. pneumoniae, armA
[10] = isolate R502, K. pneumoniae, rmtF
[11] = isolate R2160, K. pneumoniae, rmtG
[12] = isolate R2257, K. pneumoniae, armA
[13] = isolate S155, K. pneumoniae, AG susceptible
[14] = isolate 92/31, E. coli, AAC(3)-IV
[15] = isolate 1488, E. coli, AAC(6′)-II
[16] = isolate 4000, E. coli, APH(3′)-I + AAC(3)-V
[17] = isolate FR136, E. coli ATCC 25922, AG susceptible
[18] = isolate R1436, E. coli, AG susceptible
[19] = isolate R1438, E. coli, AG susceptible
[20] = isolate R2278, E. coli ATCC 35218, AG susceptible
[21] = isolate R4100, E. coli TOP10, npmA
[22] = isolate RP4, E. coli, APH(3′)-Ib
[23] = isolate pFCT1163, E. coli, AAC(6′)-Ia
[24] = isolate pFCT4392, E. coli, AAC(3)-Ia
[25] = isolate 1110, E. cloacae, ANT(2″)
[26] = isolate HM, E. cloacae, AG susceptible
[27] = isolate R713, E. cloacae, AG susceptible
[28] = isolate R1433, E. cloacae, AG susceptible
[29] = isolate R2258, E. cloacae, armA

Gentamicin
>256 mg/L: MIC (P. stuartii; isolate R38, P. stuartii, rmtC) | MIC (P. stuartii; [2]) | MIC (P. stuartii; strain R38, P. stuartii, rmtC) | MIC (P. stuartii; strain R265, P. stuartii, rmtC) | MIC (K. pneumoniae; [6]) | MIC (K. pneumoniae; [7]) | MIC (K. pneumoniae; [9]) | MIC (K. pneumoniae; [10]) | MIC (K. pneumoniae; [11]) | MIC (K. pneumoniae; [12]) | MIC (K. pneumoniae; strain N34, K. pneumoniae, rmtC) | MIC (K. pneumoniae; strain R108, K. pneumoniae, armA) | MIC (K. pneumoniae; strain R500, K. pneumoniae, armA) | MIC (K. pneumoniae; strain R502, K. pneumoniae, rmtF) | MIC (K. pneumoniae; strain R2160, K. pneumoniae, rmtG) | MIC (K. pneumoniae; strain R2257, K. pneumoniae, armA) | MIC (A. baumannii; strain R264, A. baumannii, armA) | MIC (E. cloacae; [29]) | MIC (E. cloacae; strain R2258, E. cloacae, armA)
16 mg/L: MIC (P. stuartii; strain BM2667, P. stuartii, APH(3′)-VI + AAC(2′)) | MIC (K. pneumoniae; [3]) | MIC (K. pneumoniae; strain 1800, K. pneumoniae, AAC(6′)-I + AAC(3)-I) | MIC (E. coli; [14]) | MIC (E. coli; [15]) | MIC (E. coli; strain 92/31, E. coli, AAC(3)-IV) | MIC (E. coli; strain 1488, E. coli, AAC(6′)-II)
R (gentamicin MICs≥16): Gentamicin Phenotype (P. stuartii; isolate R38, P. stuartii, rmtC) | Gentamicin Phenotype (P. stuartii; [2]) | Gentamicin Phenotype (K. pneumoniae; [3]) | Gentamicin Phenotype (K. pneumoniae; [4]) | Gentamicin Phenotype (K. pneumoniae; [5]) | Gentamicin Phenotype (K. pneumoniae; [6]) | Gentamicin Phenotype (K. pneumoniae; [7]) | Gentamicin Phenotype (K. pneumoniae; [9]) | Gentamicin Phenotype (K. pneumoniae; [10]) | Gentamicin Phenotype (K. pneumoniae; [11]) | Gentamicin Phenotype (K. pneumoniae; [12]) | Gentamicin Phenotype (S. marcescens; isolate 4290, S. marcescens) | Gentamicin Phenotype (E. coli; isolate 62Carb, E. coli, rmtB) | Gentamicin Phenotype (E. coli; [14]) | Gentamicin Phenotype (E. coli; isolate 97, E. coli, AAC(3)-IV) | Gentamicin Phenotype (E. coli; isolate 390, E. coli, AAC(3)-IV) | Gentamicin Phenotype (E. coli; [15]) | Gentamicin Phenotype (E. coli; [16]) | Gentamicin Phenotype (E. coli; isolate 22089, E. coli, AAC(3)-I + AAC(3)-V) | Gentamicin Phenotype (E. coli; isolate 122971, E. coli, ANT(2″)) | Gentamicin Phenotype (E. coli; isolate E28, E. coli, rmtB) | Gentamicin Phenotype (E. coli; isolate R107, E. coli, rmtB) | Gentamicin Phenotype (E. coli; isolate R262, E. coli, rmtC) | Gentamicin Phenotype (E. coli; isolate R451, E. coli, rmtC) | Gentamicin Phenotype (E. coli; isolate R989, E. coli, armA) | Gentamicin Phenotype (E. coli; isolate R990, E. coli, rmtB) | Gentamicin Phenotype (E. coli; isolate R1012, E. coli, armA) | Gentamicin Phenotype (E. coli; [21]) | Gentamicin Phenotype (E. coli; [24]) | Gentamicin Phenotype (E. coli; isolate pWP701, E. coli, AAC(3)-IV) | Gentamicin Phenotype (E. cloacae; [25]) | Gentamicin Phenotype (E. cloacae; [29])
4 mg/L: MIC (A. baumannii; strain 4996, A. baumannii, AAC(6′)-I) | MIC (P. aeruginosa; strain 3655, P. aeruginosa, APH(3′)-I + ANT(2″)) | MIC (P. aeruginosa; strain 3658, P. aeruginosa, APH(3′)-I + ANT(4′)-II) | MIC (E. coli; [23]) | MIC (E. coli; strain pFCT1163, E. coli, AAC(6′)-Ia)
258 mg/L: MIC (E. coli; strain R4100, E. coli, npmA)
2 mg/L: MIC (A. baumannii; strain BM2580, A. baumannii, APH(3′)-VI) | MIC (P. aeruginosa; strain R191, P. aeruginosa, susceptible) | MIC (E. coli; strain RP4, E. coli, APH(3′)-Ib) | MIC (E. cloacae; [26]) | MIC (E. cloacae; [28]) | MIC (E. cloacae; strain HM, E. cloacae, susceptible) | MIC (E. cloacae; strain R1433, E. cloacae, susceptible)
0.5 mg/L: MIC (K. pneumoniae; [8]) | MIC (K. pneumoniae; [13]) | MIC (K. pneumoniae; strain R347, K. pneumoniae, susceptible) | MIC (K. pneumoniae; strain S155, K. pneumoniae, susceptible) | MIC (A. baumannii; strain 8541, A. baumannii, APH(3′)-VI) | MIC (E. coli; [17]) | MIC (E. cloacae; [27]) | MIC (E. cloacae; strain R713, E. cloacae, susceptible)
8 mg/L: MIC (P. stuartii; [1]) | MIC (P. aeruginosa; strain 3656, P. aeruginosa, APH(3′)-I + ANT(4′)-II) | MIC (E. coli; isolate 1054 (first entry), E. coli, AAC(6′)-I) | MIC (E. coli; isolate 1054 (second entry), E. coli, AAC(6′)-I) | MIC (E. coli; strain 1054a, E. coli, AAC(6′)-I) | MIC (E. coli; strain 1054b, E. coli, AAC(6′)-I)
64 mg/L: MIC (S. marcescens; isolate 4290, S. marcescens) | MIC (S. marcescens; strain 4290, S. marcescens) | MIC (E. coli; [16]) | MIC (E. coli; [21]) | MIC (E. coli; strain 4000, E. coli, APH(3′)-I + AAC(3)-V)
32 mg/L: MIC (E. coli; isolate 97, E. coli, AAC(3)-IV) | MIC (E. coli; [24]) | MIC (E. coli; strain 97, E. coli, AAC(3)-IV) | MIC (E. coli; strain pFCT4392, E. coli, AAC(3)-Ia) | MIC (E. cloacae; [25]) | MIC (E. cloacae; strain 1110, E. cloacae, ANT(2″))
128 mg/L: MIC (K. pneumoniae; [4]) | MIC (K. pneumoniae; [5]) | MIC (K. pneumoniae; strain 13000, K. pneumoniae, APH(3′)-I + AAC(3)-V) | MIC (K. pneumoniae; strain 22233, K. pneumoniae, AAC(3)-V)
S (gentamicin MICs≤4): Gentamicin Phenotype (P. stuartii; [1]) | Gentamicin Phenotype (K. pneumoniae; [8]) | Gentamicin Phenotype (K. pneumoniae; [13]) | Gentamicin Phenotype (E. coli; [17]) | Gentamicin Phenotype (E. coli; [18]) | Gentamicin Phenotype (E. coli; [19]) | Gentamicin Phenotype (E. coli; [20]) | Gentamicin Phenotype (E. coli; [22]) | Gentamicin Phenotype (E. coli; [23]) | Gentamicin Phenotype (E. cloacae; [26]) | Gentamicin Phenotype (E. cloacae; [27]) | Gentamicin Phenotype (E. cloacae; [28])
1 mg/L: MIC (A. baumannii; strain R1395, A. baumannii, susceptible) | MIC (P. aeruginosa; strain 28233, P. aeruginosa, APH(3′)-I + AAC(3)-I) | MIC (E. coli; [18]) | MIC (E. coli; [19]) | MIC (E. coli; [20]) | MIC (E. coli; [22]) | MIC (E. coli; strain R1436, E. coli, susceptible) | MIC (E. coli; strain R1438, E. coli, susceptible) | MIC (E. coli; strain R2278, E. coli ATCC 35218, susceptible) | MIC (E. coli; strain R2298, E. coli ATCC 25922, susceptible)
